In patent US9188580B2, “Gene reporter assay, kit, and cells for determining the presence and/or the level of a molecule that activates signal transduction activity of a cell surface protein” (LE CENTRE NATIONALE DE LA RECHERCHE SCIENTIFIQUE, priority 2002, dated 2015):

Key:
PIL5 cells [1] = test: Prevention of cell replication of PIL5 cells by anti-mitotic and pro-apoptotic agent; format: cell-based, human; conditions: at the doses tested
Method: Studies on the effects of a variety of parameters, i.e., concentration of vinblastine, time of treatment with vinblastine, fetal bovine serum (FBS) concentration, glycerol concentration in the presence or absence of DMSO, SMSO concentration, cell density, on interferon sensitivity of frozen cells were conducted to determine optimal conditions. It may not be apparent from the results shown in FIG. 12 why vinblastine instead of 5-FU was chosen as the more preferred anti-mitotic and pro-apoptotic agent for treatment of PIL5 cells prior to freezing.

PIL5 cells [2] = test: Luciferase gene reporter assay for Type I interferon: IFN sensitivity of PIL5 cells treated with anti-mitotic agent, frozen and thawed; format: cell-based, human
Method: • 1. Remove protective cover from the sample preparation micro-plate (Plate A). • 2. Add 100 μl of the diluent (RPMI 1640 medium without serum) to wells A1 through A6 and B1 through B6 of the sample preparation plate (Plate A). • 3. Add 100 μl of the interferon (IFN) reference preparation to wells A1 and B1 of Plate A containing 100 μl of diluent. • 4. Carry out serial two-fold dilutions of the IFN reference preparation in Plate A from wells A1 and B1 through wells A6 and B6 using a multi-channel micro-pipette. Sample preparation • 1. Add 100 μl of the diluent to the wells of the sample preparation plate (Plate A) where required. • 2. Dilute samples to be tested if the estimated IFN titer of the samples is greater than 100 IU/ml. • 3. Dilute samples appropriately in the sample preparation micro-plate (Plate A) Assay Procedure • 1. Rapidly thaw the 96-well PIL5 assay micro-plate (Plate B) on a flat surface with the cover uppermost. A water-bath set at 37° C. can be used for convenience. • 2. Dry protective cover with a paper hand towel, taking care to maintain the label uppermost. • 3. Carefully remove protective cover from the PIL5 assay micro-plate (Plate B) while maintaining the cover uppermost. • 4. Add 75 μl of each of the serial two-fold dilutions of the reference preparation to wells A1 and B1 through wells A6 and B6 of the PIL5 assay micro-plate (Plate B) using a multi-channel micro-pipette. • 5. Add 75 μl of each undiluted or appropriately diluted sample to the PIL assay micro-plate […]. • 6. Incubate the PIL5 assay micro-plate (Plate B) overnight at 37° C. in an atmosphere of 5% CO2 in air. A CO2 incubator can be used for convenience. • 7. […] Determine the luminescence of the samples using a micro-plate luminometer (LUMICOUNT, Packard). […] Plot standard curve from the mean of the luminescence readings for each dilution of the IFN reference preparation calibrated against the NIH international reference standard for HuIFN-α (G-023-901-527) using Microsoft EXCEL. • 2. […]

O=c1[nH]cc(F)c(=O)[nH]1 [5-FU, 5-fluorouracil] was tested, and the preventing cell replication (PIL5 cells [1]) was “not found to be sufficiently effective” and the “maintaining interferon sensitivity of frozen PIL5 cells” value (PIL5 cells [2]; treatment prior to freezing, compared with vinblastine, FIG. 12) was “superior to vinblastine”.
With C[S+](C)[O-] [DMSO, dimethyl sulfoxide] the “protection of cells frozen at −20° C. and effect on sensitivity to IFN” value (PIL5 cells [2]; no special freezing or thawing techniques, FIG. 11) was “without adversely affecting their sensitivity to IFN”.
CC[C@]1(O)C[C@@H]2CN(CCc3c([nH]c4ccccc34)[C@@](C(=O)OC)(c3cc4c(cc3OC)N(C)[C@H]3[C@@](O)(C(=O)OC)[C@H](OC(C)=O)[C@]5(CC)C=CCN6CC[C@]43[C@@H]65)C2)C1 [vinblastine] was tested, and the “IFN sensitivity of PIL5 cells after treatment and freezing” value (PIL5 cells [2]; 100 μM vinblastine, 1.0 hour at 37° C., one month at −20° C., FIG. 11) was “retain full IFN sensitivity”.
